Source: the supplement of paper PMC12317010
Where a name gives a salt, the structure may show the parent alone.

Experiment: collision cross section in nitrogen (drift tube, single-field); higher = larger gas-phase ion size
[1] = ion type: [M+H], ion source: APCI, ion mode: Positive
[2] = ion type: [M+H], ion source: ESI, ion mode: Positive
[3] = ion type: [M+Na], ion source: ESI, ion mode: Positive
[4] = ion type: [M-H], ion source: ESI, ion mode: Negative
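Also: chemical standards at 10 µM analysed by drift tube IMS-QTOF MS in about 3.95 torr nitrogen, mean of duplicate injections differing ≤1%, mass error below 10 ppm.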

| collision cross section in nitrogen [4] [Å²] | collision cross section in nitrogen (ion type: [M+], ion source: APCI, ion mode: Positive) [Å²] | SMILES | collision cross section in nitrogen [1] [Å²] | collision cross section in nitrogen [2] [Å²] | collision cross section in nitrogen [3] [Å²] |
| --- | --- | --- | --- | --- | --- |
| 172.5 | – | CC(=O)CC(c1ccccc1)c1c(O)c2ccccc2oc1=O (configuration not stated) [Sodium warfarin] | 167.1 | 167 | 178.6 |
| 207.7 | – | CCCCCCCC/C=C\CCCCCCCC(=O)OC[C@@H](O)[C@H]1OC[C@H](O)[C@H]1O [Sorbitan, mono-(9Z)-9-octadecenoate] | – | – | 211.8 |
| – | – | C[C@@H]1CN(c2c(F)c(N)c3c(=O)c(C(=O)O)cn(C4CC4)c3c2F)C[C@H](C)N1 [Sparfloxacin] | – | 190.2 | – |
| – | – | CCC(C)(C)C(=O)OC1=C(c2ccc(Cl)cc2Cl)C(=O)OC12CCCCC2 [Spirodiclofen] | – | – | 209.5 |
| – | – | CCOC(=O)OC1=C(c2cc(C)ccc2C)C(=O)N[C@]12CC[C@@H](OC)CC2 [Spirotetramat] | 190.2 | 189.3 | 202.3 |
| – | – | CCCN(CC)CC1COC2(CCC(C(C)(C)C)CC2)O1 (configuration not stated) [Spiroxamine] | – | 176.6 | – |
| – | – | O=C1C[C@@H]2OCC=C3CN4CC[C@]56c7ccccc7N1[C@H]5[C@H]2[C@H]3C[C@H]46 [Strychnine hemisulphate salt] | 172.6 | 175.8 | – |
| – | – | O=C1C[C@@H]2OCC=C3CN4CC[C@]56c7ccccc7N1[C@H]5[C@H]2[C@H]3C[C@H]46 [Strychnine] | 172 | 175.2 | – |
| 174.5 | – | OC[C@H]1O[C@H](O[C@]2(CCl)O[C@H](CCl)[C@@H](O)[C@@H]2O)[C@H](O)[C@@H](O)[C@H]1Cl [Sucralose] | – | – | 179.7 |
| – | – | CC(=O)OC[C@H]1O[C@@](COC(C)=O)(O[C@H]2O[C@H](COC(C)=O)[C@@H](OC(C)=O)[C@H](OC(C)=O)[C@H]2OC(C)=O)[C@@H](OC(C)=O)[C@@H]1OC(C)=O [Sucrose octaacetate] | – | – | 238.1 |
| 112 | – | NS(=O)(=O)O [Sulfamic acid] | – | – | – |
| 197.5 | – | O=C(O)c1cc(N=Nc2ccc(S(=O)(=O)Nc3ccccn3)cc2)ccc1O [Sulfasalazine] | 203.9 | 203.6 | – |
| 154.1 | – | Nc1ccc(S(=O)(=O)Nc2nccs2)cc1 [Sulfathiazole sodium] | 153.3 | 153.6 | 167.2 |
| 154.3 | – | Nc1ccc(S(=O)(=O)Nc2nccs2)cc1 [Sulfathiazole] | 153.5 | 153.9 | 167.5 |
| 124.5 | – | O=C(O)CC(C(=O)O)S(=O)(=O)O (configuration not stated) [Sulfosuccinic acid] | – | – | – |
| – | – | CCOP(=S)(OCC)OP(=S)(OCC)OCC [Sulfotep] | – | – | 172.2 |
| – | – | CC1=C(CC(=O)O)c2cc(F)ccc2/C1=C\c1ccc(S(C)=O)cc1 (configuration not stated) [Sulindac] | – | 196.2 | – |
| 167.7 | – | COc1cc(O)c(C(=O)c2ccccc2)cc1S(=O)(=O)O [Sulisobenzone hydrate] | – | – | – |

| collision cross section in nitrogen [4] [Å²] | collision cross section in nitrogen (ion type: [M+], ion source: APCI, ion mode: Positive) [Å²] | SMILES | collision cross section in nitrogen [1] [Å²] | collision cross section in nitrogen [2] [Å²] | collision cross section in nitrogen [3] [Å²] |
| --- | --- | --- | --- | --- | --- |
| 168.1 | – | COc1cc(O)c(C(=O)c2ccccc2)cc1S(=O)(=O)O [Sulisobenzone] | – | – | – |
| 268.7 | 269.1 | Cc1cc(CCC(=O)OCC(C)(C)C2OCC3(CO2)COC(C(C)(C)COC(=O)CCc2cc(C)c(O)c(C(C)(C)C)c2)OC3)cc(C(C)(C)C)c1O (configuration not stated) [Sumilizer GA 80] | 268.1 | – | 261.6 |
| – | – | CCN(CC)CCNC(=O)c1c(C)[nH]c(/C=C2\C(=O)Nc3ccc(F)cc32)c1C [Sunitinib malate] | – | 207 | 214.3 |
| 226.6 | – | CCc1c(C(=O)NN2CCCCC2)nn(-c2ccc(Cl)cc2Cl)c1-c1ccc(Br)cc1 [Surinabant] | 224.8 | 224.1 | 232.1 |
| – | – | CCCCC1(COC(=O)CCC(=O)O)C(=O)N(c2ccccc2)N(c2ccccc2)C1=O [Suxibuzone] | 201.3 | 200.8 | 204.5 |
| 140.9 | – | COC(=O)Nc1ccc(Cl)c(Cl)c1 [Swep] | – | – | – |
| 145.4 | – | Nc1c2c(nc3ccccc13)CCCC2 [Tacrine] | – | 142.7 | – |
| 157.7 | – | C[C@]1(Cn2ccnn2)[C@H](C(=O)O)N2C(=O)C[C@H]2S1(=O)=O [Tazobactam sodium] | – | 161.8 | – |
| – | – | CC(C)(C)C(O)(CCc1ccc(Cl)cc1)Cn1cncn1 (configuration not stated) [Tebuconazole] | 167.5 | 166.8 | 172.5 |
| – | – | CCOP(=S)(Oc1cnc(C(C)(C)C)nc1)OC(C)C (configuration not stated) [Tebupirimfos] | 177.4 | 177.4 | – |
| – | – | CNC(=O)N(C)c1nnc(C(C)(C)C)s1 [Tebuthiuron] | 150.4 | 150.5 | 162.9 |
| 209.4 | – | CC1CN(c2cc3c(cc2F)c(=O)c(C(=O)O)cn3-c2ccc(F)cc2F)CCN1 (configuration not stated) [Temafloxacin] | – | 193 | 211.3 |
| – | – | COP(=S)(OC)Oc1ccc(Sc2ccc(OP(=S)(OC)OC)cc2)cc1 [Temephos] | 189.4 | 189.5 | 196.3 |
| – | – | CNC(=O)Oc1c(C(C)(C)C)cc(C)cc1C(C)(C)C [Terbucarb] | – | – | 176.8 |
| – | – | CCOP(=S)(OCC)SCS(=O)(=O)C(C)(C)C [Terbufos sulfone] | – | – | 171.3 |
| – | – | CCNc1nc(NC(C)(C)C)nc(OC)n1 [Terbumeton] | 154.8 | 154.9 | 172.2 |
| – | – | CCNc1nc(NC(C)(C)C)nc(SC)n1 [Terbutryn] | 159.9 | 159.4 | – |

| SMILES | collision cross section in nitrogen [4] [Å²] | collision cross section in nitrogen (ion type: [M+], ion source: APCI, ion mode: Positive) [Å²] | collision cross section in nitrogen [1] [Å²] | collision cross section in nitrogen [2] [Å²] | collision cross section in nitrogen [3] [Å²] |
| --- | --- | --- | --- | --- | --- |
| Cc1nn(-c2cc(NS(C)(=O)=O)c(Cl)cc2Cl)c(=O)n1C(F)F [Sulfentrazone] | 182.4 | – | – | 178.2 | 184 |
| CCc1ccc(C(=O)NN(C(=O)c2cc(C)cc(C)c2)C(C)(C)C)cc1 [Tebufenozide] | 193.6 | – | – | – | 201.3 |
| CCc1nn(C)c(C(=O)NCc2ccc(C(C)(C)C)cc2)c1Cl [Tebufenpyrad] | 194 | – | 193.9 | 193 | 193.2 |
| O=C(NC(=O)c1c(F)cccc1F)Nc1cc(Cl)c(F)c(Cl)c1F [Teflubenzuron] | 178.7 | – | – | – | – |
| CS(=O)(=O)c1ccc(C(=O)C2C(=O)CCCC2=O)c(Cl)c1COCC(F)(F)F [Tembotrione] | 188.5 | – | – | 189.3 | 185.1 |
| CCC(=NOC/C=C/Cl)C1=C(O)CC(C2CCOCC2)CC1=O (configuration not stated) [Tepraloxydim] | 181.1 | – | – | 185.8 | 191.1 |
| Cc1[nH]c(=O)n(C(C)(C)C)c(=O)c1Cl [Terbacil] | 144.9 | – | – | – | – |
